target: T1, Cholesteryl ester transfer protein (Homo sapiens, UniProt P11597); assay: Inhibition of CETP
T1 sequence (P11597 whole entry): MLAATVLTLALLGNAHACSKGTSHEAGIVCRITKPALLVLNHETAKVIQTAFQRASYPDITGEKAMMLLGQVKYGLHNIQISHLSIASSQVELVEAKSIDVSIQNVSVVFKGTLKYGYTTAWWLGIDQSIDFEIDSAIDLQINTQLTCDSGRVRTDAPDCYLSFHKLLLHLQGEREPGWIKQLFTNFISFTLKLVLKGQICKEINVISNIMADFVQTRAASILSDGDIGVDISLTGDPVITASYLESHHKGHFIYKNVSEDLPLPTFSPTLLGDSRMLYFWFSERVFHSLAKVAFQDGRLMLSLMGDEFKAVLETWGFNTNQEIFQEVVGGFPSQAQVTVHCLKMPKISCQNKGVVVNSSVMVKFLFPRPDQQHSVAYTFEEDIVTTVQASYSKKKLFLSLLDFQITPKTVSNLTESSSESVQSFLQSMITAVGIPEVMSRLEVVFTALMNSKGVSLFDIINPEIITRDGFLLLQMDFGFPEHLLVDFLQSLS

Structure (SMILES)	IC50 [nM]
Cc1cc(C#N)cc2nc(-c3ccc(CC(=O)CN4CCN(c5ccc(C(F)(F)F)cc5)CC4)cc3)oc12	5740
Cc1cc(C#N)cc2nc(-c3ccc(OCCN4CCN(c5ccc(C(F)(F)F)cc5)CC4)cc3)oc12	4550
N#Cc1cc(C2CC2)c2oc(-c3ccc(C(=O)NCC4CCN(c5ccc(C(F)(F)F)cn5)CC4)cc3)nc2c1	243
C=C(C)c1ccc(N2CCC(CNC(=O)c3ccc(-c4nc5cc(C#N)cc(C(C)C)c5o4)cc3)CC2)nc1	229
Cc1cc(C#N)cc2nc(-c3ccc(NCC(O)CN4CCN(c5ccc(C(F)(F)F)cc5)CC4)cc3)oc12 (stereo not given)	18800
Cc1cc(C#N)cc2nc(-c3ccc(C(=O)N4CCN(c5ccc(C(F)(F)F)cc5)CC4)cc3)oc12	4030
CC(C)c1cc(C#N)cc2nc(-c3ccc(C(=O)NCC4CCN(c5ccc(Br)cn5)CC4)cc3)oc12	223
C=C(C)c1cc(C#N)cc2nc(-c3ccc(C(=O)NCC4CCN(c5ccc(C(F)(F)F)cn5)CC4)cc3)oc12	131
Cc1cc(C#N)cc2nc(-c3ccc(C(O)CCN4CCN(c5ccc(C(F)(F)F)cc5)CC4)cc3)oc12 (stereo not given)	2250
Cc1cc(C#N)cc2nc(-c3ccc(CC(O)CN4CCN(c5ccc(C(F)(F)F)cc5)CC4)cc3)oc12 (stereo not given)	874
Cc1cc(C#N)cc2nc(-c3ccc(C(=O)NCCC4CCN(c5ccc(C(F)(F)F)cc5)CC4)cc3)oc12	11600
Cc1cc(C#N)cc2nc(-c3ccc(CCCN4CCN(c5ccc(C(F)(F)F)cc5)CC4)cc3)oc12	975
CC(C)c1cc(C#N)cc2nc(-c3ccc(C(=O)NCC4CCN(c5cccc(C(=O)O)n5)CC4)cc3)oc12	> 10000
CC(C)(C)c1cc(C#N)cc2nc(-c3ccc(C(=O)NCC4CCN(c5ccc(C(F)(F)F)cn5)CC4)cc3)oc12	198
COC(=O)c1cccc(N2CCC(CNC(=O)c3ccc(-c4nc5cc(C#N)cc(C(C)C)c5o4)cc3)CC2)n1	306
COC(Cc1ccc(-c2nc3cc(C#N)cc(C)c3o2)cc1)CN1CCN(c2ccc(C(F)(F)F)cc2)CC1 (stereo not given)	8940
N#Cc1cc(C(F)(F)F)c2oc(-c3ccc(C(=O)NCC4CCN(c5ccc(C(F)(F)F)cn5)CC4)cc3)nc2c1	3190
Cc1cc(C#N)cc2nc(-c3ccc(N4CCC(N5CCN(c6ccc(C(F)(F)F)cc6)CC5)C4=O)cc3)oc12 (stereo not given)	2740
Cc1cc(C#N)cc2nc(-c3ccc(C(=O)N(C)CC4CCN(c5ccc(C(F)(F)F)cc5)CC4)cc3)oc12	2610
COC(=O)c1ccc(N2CCC(CNC(=O)c3ccc(-c4nc5cc(C#N)cc(C(C)C)c5o4)cc3)CC2)nc1	114
Cc1cc(C#N)cc2nc(-c3ccc(C#CCN4CCN(c5ccc(C(F)(F)F)cc5)CC4)cc3)oc12	2170
CC(C)c1cc(C#N)cc2nc(-c3ccc(C(=O)NCC4CCN(c5ccc([N+](=O)[O-])cn5)CC4)cc3)oc12	> 10000
Cc1cc(C#N)cc2nc(-c3ccc(C(=O)NCC4CCN(c5ccc(C(F)(F)F)cc5)CC4)cc3)oc12	300
CC(C)c1cc(C#N)cc2nc(-c3ccc(C(=O)NCC4CCN(c5ccc(-c6cc(C(F)(F)F)ccc6OCc6ccccc6)cn5)CC4)cc3)oc12	413
CC(C)c1cc(C#N)cc2nc(-c3ccc(C(=O)NCC4CCN(c5ccccn5)CC4)cc3)oc12	114
Cc1cc(C#N)cc2nc(-c3ccc(C(=O)CCN4CCN(c5ccc(C(F)(F)F)cc5)CC4)cc3)oc12	2050

Further lines, results first:

IC50 [nM]	Structure (SMILES)
110	COc1cccc(N2CCC(CNC(=O)c3ccc(-c4nc5cc(C#N)cc(C(C)C)c5o4)cc3)CC2)n1
61	CC(C)c1cc(C#N)cc2nc(-c3ccc(C(=O)NCC4CCN(c5cc(C(F)(F)F)ccn5)CC4)cc3)oc12
48	Cc1ccc(-c2ccc(N3CCC(CNC(=O)c4ccc(-c5nc6cc(C#N)cc(C(C)C)c6o5)cc4)CC3)nc2)cc1
47	COc1cccc(Cl)c1-c1ccc(N2CCC(CNC(=O)c3ccc(-c4nc5cc(C#N)cc(C(C)C)c5o4)cc3)CC2)nc1
43	CC(C)c1cc(C#N)cc2nc(-c3ccc(C(=O)NCC4CCN(c5ccc(-c6ccccc6)cn5)CC4)cc3)oc12
40	CC(C)c1cc(C#N)cc2nc(-c3ccc(C(=O)NCC4CCN(c5ccc(C(F)(F)F)cn5)CC4)cc3)oc12
39	Cc1cccc(-c2ccc(N3CCC(CNC(=O)c4ccc(-c5nc6cc(C#N)cc(C(C)C)c6o5)cc4)CC3)nc2)c1
37	CC(C)c1cc(C#N)cc2nc(-c3ccc(C(=O)NCC4CCN(c5cccc(C(F)(F)F)n5)CC4)cc3)oc12
31	CC(C)COc1ccccc1-c1ccc(N2CCC(CNC(=O)c3ccc(-c4nc5cc(C#N)cc(C(C)C)c5o4)cc3)CC2)nc1
29	CC(C)Oc1ccccc1-c1ccc(N2CCC(CNC(=O)c3ccc(-c4nc5cc(C#N)cc(C(C)C)c5o4)cc3)CC2)nc1
28	CC(C)Oc1ccc(C(F)(F)F)cc1-c1ccc(N2CCC(CNC(=O)c3ccc(-c4nc5cc(C#N)cc(C(C)C)c5o4)cc3)CC2)nc1
24	COc1cc(F)c(C(C)C)cc1-c1ccc(N2CCC(CNC(=O)c3ccc(-c4nc5cc(C#N)cc(C(C)C)c5o4)cc3)CC2)nc1
22	CC(C)c1cc(C#N)cc2nc(-c3ccc(C(=O)NCC4CCN(c5nccc(C(F)(F)F)n5)CC4)cc3)oc12
22	Cc1ccc(OC(C)C)c(-c2ccc(N3CCC(CNC(=O)c4ccc(-c5nc6cc(C#N)cc(C(C)C)c6o5)cc4)CC3)nc2)c1
19	CC(C)c1ccccc1-c1ccc(N2CCC(CNC(=O)c3ccc(-c4nc5cc(C#N)cc(C(C)C)c5o4)cc3)CC2)nc1
15	Cc1cc(C#N)cc2nc(-c3ccc(NC(=O)CN4CCN(c5ccc(C(F)(F)F)cn5)CC4)cc3)oc12
13	CC(C)Oc1ccc(F)cc1-c1ccc(N2CCC(CNC(=O)c3ccc(-c4nc5cc(C#N)cc(C(C)C)c5o4)cc3)CC2)nc1

system: Mus musculus; assay: Antiatherogenic activity in transgenic mouse PD model assessed as rise in HDL-cholesterol level at 10 mg/kg; assay type: functional

Structure (SMILES)	Activity [mg/dL]
Cc1cc(C#N)cc2nc(-c3ccc(NC(=O)CN4CCN(c5ccc(C(F)(F)F)cn5)CC4)cc3)oc12	21
CC(C)c1cc(C#N)cc2nc(-c3ccc(C(=O)NCC4CCN(c5ccc(-c6ccccc6)cn5)CC4)cc3)oc12	22
CC(C)c1cc(C#N)cc2nc(-c3ccc(C(=O)NCC4CCN(c5nccc(C(F)(F)F)n5)CC4)cc3)oc12	7
Cc1cc(C#N)cc2nc(-c3ccc(NC(=O)CN4CCN(c5ccc(C(F)(F)F)cc5)CC4)cc3)oc12	24
CC(C)Oc1ccc(F)cc1-c1ccc(N2CCC(CNC(=O)c3ccc(-c4nc5cc(C#N)cc(C(C)C)c5o4)cc3)CC2)nc1	24
CC(C)c1cc(C#N)cc2nc(-c3ccc(C(=O)NCC4CCN(c5ccc(C(F)(F)F)cn5)CC4)cc3)oc12	16
Cc1ccc(OC(C)C)c(-c2ccc(N3CCC(CNC(=O)c4ccc(-c5nc6cc(C#N)cc(C(C)C)c6o5)cc4)CC3)nc2)c1	28
